Measured values taken from patent publication US12492181B2, “Gem-disubstituted piperidine melanocortin subtype-2 receptor (MC2R) antagonists and uses thereof” (Crinetics Pharmaceuticals, Inc., priority 2019, dated 2025).

Molecular target: T1, hMC2 receptor (crude hMC2R membranes from CRE-bla-CHO-K1 cells stably expressing hMC2 receptor and hMRAP accessory protein) (Homo sapiens, UniProt Q01718)
T1 construct: crude membrane fractions
Test: hMC2 membrane binding assay ([125I]ACTH (1-39) Tyr23, SPA)
Conditions: displacement of 0.2 nM [125I]ACTH (1-39) Tyr23 from hMC2R membranes, 1.5 hours at room temperature; read-out: MC2R binding potency
In short: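 Crude membranes from CRE-bla-CHO-K1 cells stably co-expressing hMC2R and hMRAP, premixed with WGA PVT SPA beads in pH 7.4 HEPES buffer (5 mM MgCl2, 1 mM CaCl2, 0.20% BSA, protease inhibitors). Compounds compete with [125I]ACTH(1-39) Tyr23, read by scintillation. Ki from non-linear regression.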

T1 sequence (Q01718 whole entry): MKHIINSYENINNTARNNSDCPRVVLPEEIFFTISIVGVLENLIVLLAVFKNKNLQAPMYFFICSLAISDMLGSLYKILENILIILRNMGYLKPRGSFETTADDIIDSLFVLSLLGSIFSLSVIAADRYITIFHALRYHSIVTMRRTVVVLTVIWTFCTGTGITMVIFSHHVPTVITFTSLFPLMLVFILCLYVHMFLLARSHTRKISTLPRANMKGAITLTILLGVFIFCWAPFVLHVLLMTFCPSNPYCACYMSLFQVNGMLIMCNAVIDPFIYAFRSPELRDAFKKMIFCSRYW
T1 sequence (Q8TCY5 whole entry partner): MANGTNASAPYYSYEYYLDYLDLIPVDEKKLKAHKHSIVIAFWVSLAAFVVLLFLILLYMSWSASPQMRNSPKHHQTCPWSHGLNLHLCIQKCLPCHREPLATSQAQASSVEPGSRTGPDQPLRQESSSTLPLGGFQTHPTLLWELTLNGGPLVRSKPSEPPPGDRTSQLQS

Structure (SMILES) | Ki
Cc1nocc1-c1ccc(C2(C(=O)N[C@H]3CCN(C)C3)CCN(c3ccc(C(F)(F)F)cc3C#N)CC2)cn1 [Compound 1-149, 1-[2-cyano-4-(trifluoromethyl)phenyl]-4-[6-(3-methyl-1,2-oxazol-4-yl)pyridin-3-yl]-N-[(3S)-1-methylpyrrolidin-3-yl]piperidine-4-carboxamide] | < 10 nM
CCOc1ncccc1-c1ccc(C2(C(=O)NC3CN(C)C3)CCN(c3ccc(C(F)(F)F)cc3C#N)CC2)nn1 [Compound 1-140, 1-[2-cyano-4-(trifluoromethyl)phenyl]-4-[6-(2-ethoxypyridin-3-yl)pyridazin-3-yl]-N-(1-methylazetidin-3-yl)piperidine-4-carboxamide] | < 10 nM
CCOc1ncccc1-c1ncc(C2(C(=O)N[C@H]3CCN(C)C3)CCN(c3ccc(C(F)(F)F)cc3F)CC2)cc1F [Compound 1-201, (S)-4-(2′-ethoxy-3-fluoro-[2,3′-bipyridin]-5-yl)-1-(2-fluoro-4-(trifluoromethyl)phenyl)-N-(1-methylpyrrolidin-3-yl)piperidine-4-carboxamide] | < 10 nM
COc1sccc1-c1ccc(C2(C(=O)N[C@H]3CCN(C)C3)CCN(c3ccc(C(F)(F)F)cc3C#N)CC2)cn1 [Compound 1-119, 1-[2-cyano-4-(trifluoromethyl)phenyl]-4-[6-(2-methoxythiophen-3-yl)pyridin-3-yl]-N-[(3S)-1-methylpyrrolidin-3-yl]piperidine-4-carboxamide] | < 10 nM
CCOc1ccccc1-c1ccc(C2(C(=O)N[C@H]3CCN(C)C3)CCN(c3ccc(C(F)(F)F)cc3F)CC2)cn1 [Compound 1-145, 4-[6-(2-ethoxyphenyl)pyridin-3-yl]-1-[2-fluoro-4-(trifluoromethyl)phenyl]-N-[(3S)-1-methylpyrrolidin-3-yl]piperidine-4-carboxamide] | < 10 nM
CNCCCNC(=O)C1(c2ccc(-c3cccn3C)nc2)CCN(c2ccc(C(F)(F)F)cc2C#N)CC1 [Compound 1-206, 1-[2-cyano-4-(trifluoromethyl)phenyl]-4-[6-(1-methyl-1H-pyrrol-2-yl)pyridin-3-yl]-N-[3-(methylamino)propyl]piperidine-4-carboxamide] | 10 to 100 nM
COc1ccccc1-c1ccc(C2(NC(=O)N[C@H]3CCN(C)C3)CCN(c3ccc(C(F)(F)F)cc3C#N)CC2)cn1 [Compound 2-55, 1-{1-[2-cyano-4-(trifluoromethyl)phenyl]-4-[6-(2-methoxyphenyl)pyridin-3-yl]piperidin-4-yl}-3-[(3S)-1-methylpyrrolidin-3-yl]urea] | < 10 nM
CCOc1ccccc1-c1ccc(C2(NC(=O)[C@H]3CCN(C)C3)CCN(c3ccc(Cl)cc3C#N)CC2)cn1 [Compound 2-28, (3S)—N-[1-(4-chloro-2-cyanophenyl)-4-[6-(2-ethoxyphenyl)pyridin-3-yl]piperidin-4-yl]-1-methylpyrrolidine-3-carboxamide] | < 10 nM
Cn1cccc1-c1ccc(C2(C(=O)NC[C@H]3CCCN3)CCN(c3ccc(C(F)(F)F)cc3C#N)CC2)cn1 [Compound 1-231, 1-[2-cyano-4-(trifluoromethyl)phenyl]-4-[6-(1-methyl-1H-pyrrol-2-yl)pyridin-3-yl]-N-{[(2R)-pyrrolidin-2-yl]methyl}piperidine-4-carboxamide] | < 10 nM
COc1ccccc1-c1ccc(C2(C(=O)NC[C@@H]3C[C@@H](F)CN3)CCN(c3ccc(C(F)(F)F)cc3C#N)CC2)cn1 [Compound 1-247, 1-[2-cyano-4-(trifluoromethyl)phenyl]-N-{[(2S,4R)-4-fluoropyrrolidin-2-yl]methyl}-4-[6-(2-methoxyphenyl)pyridin-3-yl]piperidine-4-carboxamide] | < 10 nM
CCOc1ncccc1-c1ccc(C2(C(=O)N[C@@H]3CCNC3)CCN(c3ccc(C(F)(F)F)cc3C#N)CC2)cn1 [Compound 1-10, 1-[2-cyano-4-(trifluoromethyl)phenyl]-4-{2′-ethoxy-[2,3′-bipyridin]-5-yl}-N-[(3R)-pyrrolidin-3-yl]piperidine-4-carboxamide] | < 10 nM
